Where “and” joins values, the source holds several entries; their conditions need not be identical. Equal entries are not always repeated.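 Results reflect a 48-hour exposure of cells in 96-well plates to compound at five concentrations. GI50 marks 50% less growth. Definition used: TGI = concentration required for complete inhibition of growth.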
Experiments:
Assay in all cases: growth of human tumour cells (NCI), 48 h
A498 renal = tested on: A498 renal
COLO 205 colon = tested on: COLO 205 colon
HL-60(TB) leukemia = tested on: HL-60(TB) leukemia
HS 578T breast = tested on: HS 578T breast
KM12 colon = tested on: KM12 colon
NCI-H226 lung = tested on: NCI-H226 lung
OVCAR-4 ovarian = tested on: OVCAR-4 ovarian
SF-295 CNS = tested on: SF-295 CNS
SW-620 colon = tested on: SW-620 colon
U251 CNS = tested on: U251 CNS

SMILES	GI50 (A498 renal) [µM]	TGI (A498 renal) [µM]	GI50 (COLO 205 colon) [µM]	TGI (COLO 205 colon) [µM]	GI50 (HL-60(TB) leukemia)	TGI (HL-60(TB) leukemia) [µM]	GI50 (HS 578T breast) [µM]	TGI (HS 578T breast) [µM]	GI50 (KM12 colon) [µM]	TGI (KM12 colon) [µM]	GI50 (NCI-H226 lung) [µM]	TGI (NCI-H226 lung) [µM]	GI50 (OVCAR-4 ovarian) [µM]	TGI (OVCAR-4 ovarian) [µM]	GI50 (SF-295 CNS) [µM]	TGI (SF-295 CNS) [µM]	GI50 (SW-620 colon) [µM]	TGI (SW-620 colon) [µM]	GI50 (U251 CNS) [µM]	TGI (U251 CNS) [µM]
c1cc(OCCN2CCCC2)ccc1CNc1ccc2nc(CCC3CCCCC3)[nH]c2c1	1.15	2.77	1.7	3.35	1.79 µM	3.72	1.62	4.53	2.7	8.46	1.51	3.6	2.64	12.7	1.97	3.86	1.85	3.96	1.41	3.16
O=C1OC2(c3ccc(O)cc3Oc3cc(O)ccc32)c2cccc3cccc1c23	24.8	70.1	17.2	33.2	30.6 µM	81.6	22.2	> 100	23.2	57.8	16.1	52.1	16.1	34.4	32.3	> 100	16.5	42.7	18.1	39.3
COC(=O)[C@H](Cc1cn(C)cn1)NC(=O)[C@H](CC(C)C)NC(=O)Nc1cc(C(F)(F)F)cc(C(F)(F)F)c1	> 10	> 10	> 10	> 10	> 10 µM	> 10	> 10	> 10	> 10	> 10	> 10	> 10	> 10	> 10	> 10	> 10	5.28	> 10	> 10	> 10
CCOC(=O)Cc1csc(NC(=O)C(OC(=O)c2ccc(Cl)cc2)c2ccccc2)n1 (stereo not drawn)	> 100	> 100	38.3	> 100	9.28 µM	68.9	54.8	> 100	38.9	> 100	54.4	> 100	40.3	> 100	24.6	56.8	48.4	> 100	45.3	> 100
CCOc1ccc(-c2nc3ccc(-c4nc5ccc(N6CCN(C)CC6)cc5[nH]4)cc3[nH]2)cc1	0.223	1.05	0.117	1.26	1.2 µM and 0.162 µM	1.23	0.476	2.52	0.999	2.15	0.648	2.25	0.219	0.838	0.518	2.63	0.234	1.17	0.155	1.05
COc1ccc(O)c(/C=N\Nc2ccccc2)c1	–	91.6	–	26.2	–	17.4	–	> 100	–	–	–	> 100	–	> 100	–	–	–	22.6	–	> 100

— PubChem BioAssay (NCI)
